# Paper PMC12736255, “Reinvestigating Pyrrol-2-One-Based Compounds: From Antimicrobial Agents to Promising Antitumor Candidates” (Pharmaceuticals, 2025)
# Experiments:
# Assay in all cases: NCI-60 single-dose screen
# Format in all cases: cell-based
# [1] = test system: M14; details: Homo sapiens; M14, 10^–5 M; read-out: GI (%)
# From the text: (§1) In the next step, all synthesized compounds were electronically submitted and accepted for testing to the National Cancer Institute (NCI) platform, for the single dose (10^−5 M) screening against a panel of 60 human tumor cell lines, representing leukemia, melanoma, and cancers of the lung, colon, central nervous system, ovary, kidney, prostate, and breast. The results are summarized in Table 2, with the best values highlighted in red (Figures S1–S14).
# [2] = test system: OVCAR-3; details: Homo sapiens; OVCAR-3, 10^–5 M; read-out: GI (%)
# From the text: as §1
# [3] = test system: KM12; details: Homo sapiens; KM12, 10^–5 M; read-out: GI (%)
# From the text: as §1
# [4] = test system: OVCAR-5; details: Homo sapiens; OVCAR-5, 10^–5 M; read-out: GI (%)
# From the text: as §1
# [5] = test system: NCI-H522; details: Homo sapiens; NCI-H522, 10^–5 M; read-out: GI (%)
# From the text: as §1
# [6] = test system: HL-60(TB); details: Homo sapiens, 10^–5 M, read-out: GI (%)
# From the text: as §1
# [7] = test system: NCI-H460; details: Homo sapiens; NCI-H460, 10^–5 M; read-out: GI (%)
# From the text: as §1
# [8] = test system: COLO205; details: Homo sapiens, COLO 205; COLO205, 10^–5 M; read-out: GI (%)
# From the text: as §1
# [9] = test system: CCRF-CEM; details: Homo sapiens, 10^–5 M, read-out: GI (%)
# From the text: as §1
# [10] = test system: SK-OV-3; details: Homo sapiens; SK-OV-3, 10^–5 M; read-out: GI (%)
# From the text: as §1
# [11] = test system: HCT-15; details: Homo sapiens; HCT-15, 10^–5 M; read-out: GI (%)
# From the text: as §1
# [12] = test system: NCI-H23; details: Homo sapiens; NCI-H23, 10^–5 M; read-out: GI (%)
# From the text: as §1
# [13] = test system: A549/ATCC; details: Homo sapiens, 10^–5 M, read-out: GI (%)
# From the text: as §1
# [14] = test system: RPMI-8226; details: Homo sapiens; RPMI-8226, 10^–5 M; read-out: GI (%)
# From the text: as §1
# [15] = test system: HCT-116; details: Homo sapiens; HCT-116, 10^–5 M; read-out: GI (%)
# From the text: as §1
# [16] = test system: SF-539; details: Homo sapiens; SF-539, 10^–5 M; read-out: GI (%)
# From the text: as §1
# [17] = test system: SK-MEL-5; details: Homo sapiens; SK-MEL-5, 10^–5 M; read-out: GI (%)
# From the text: as §1
# [18] = test system: LOX IMVI; details: Homo sapiens, 10^–5 M, read-out: GI (%)
# From the text: as §1
# [19] = test system: NCI-H322M; details: Homo sapiens, 10^–5 M, read-out: GI (%)
# From the text: as §1
# [20] = test system: HOP-92; details: Homo sapiens; HOP-92, 10^–5 M; read-out: GI (%)
# From the text: as §1
# [21] = test system: OVCAR-4; details: Homo sapiens; OVCAR-4, 10^–5 M; read-out: GI (%)
# From the text: as §1
# [22] = test system: NCI/ADR-RES; details: Homo sapiens, 10^–5 M, read-out: GI (%)
# From the text: as §1
# [23] = test system: IGROV1; details: Homo sapiens, IGROV-1; IGROV1, 10^–5 M; read-out: GI (%)
# From the text: as §1
# [24] = test system: SR; details: Homo sapiens, 10^–5 M, read-out: GI (%)
# From the text: as §1
# [25] = test system: UACC-257; details: Homo sapiens; UACC-257, 10^–5 M; read-out: GI (%)
# From the text: as §1
# [26] = test system: ACHN; details: Homo sapiens, 10^–5 M, read-out: GI (%)
# From the text: as §1
# [27] = test system: CAKI-1; details: Homo sapiens; CAKI-1, 10^–5 M; read-out: GI (%)
# From the text: as §1
# [28] = test system: T-47D; details: Homo sapiens, T47D, 10^–5 M, read-out: GI (%)
# From the text: as §1
# [29] = test system: UACC-62; details: Homo sapiens; UACC-62, 10^–5 M; read-out: GI (%)
# From the text: as §1
# [30] = test system: K-562; details: Homo sapiens, K562; K-562, 10^–5 M; read-out: GI (%)
# From the text: as §1
# [31] = test system: 786-0; details: Homo sapiens; 786-0, 10^–5 M; read-out: GI (%)
# From the text: as §1
# [32] = test system: MDA-MB-231/ATCC; details: Homo sapiens, 10^–5 M, read-out: GI (%)
# From the text: as §1
# [33] = test system: PC-3; details: Homo sapiens, PC-3, PC-3, 10^–5 M; read-out: GI (%)
# From the text: as §1
# [34] = test system: OVCAR-8; details: Homo sapiens; OVCAR-8, 10^–5 M; read-out: GI (%)
# From the text: as §1
# [35] = test system: SNB-75; details: Homo sapiens; SNB-75, 10^–5 M; read-out: GI (%)
# From the text: as §1
# [36] = test system: HT-29; details: Homo sapiens; HT-29, 10^–5 M; read-out: GI (%)
# From the text: as §1
# [37] = test system: HS 578T; details: Homo sapiens, 10^–5 M, read-out: GI (%)
# From the text: as §1
# [38] = test system: SNB-19; details: Homo sapiens; SNB-19, 10^–5 M; read-out: GI (%)
# From the text: as §1
SMILES,inhibition at 10 µM [1],inhibition at 10 µM [2],inhibition at 10 µM [3],inhibition at 10 µM [4],inhibition at 10 µM [5],inhibition at 10 µM [6],inhibition at 10 µM [7],inhibition at 10 µM [8],inhibition at 10 µM [9],inhibition at 10 µM [10],inhibition at 10 µM [11],inhibition at 10 µM [12],inhibition at 10 µM [13],inhibition at 10 µM [14],inhibition at 10 µM [15],inhibition at 10 µM [16],inhibition at 10 µM [17],inhibition at 10 µM [18],inhibition at 10 µM [19],inhibition at 10 µM [20],further results
O=C1C(Nc2ccc(I)cc2)=CC(c2ccccc2)N1c1ccc(I)cc1 (stereo not drawn) [3a],0%,1%,8%,0%,50%,0%,1%,0%,4%,8%,19%,6%,5%,100%,14%,12%,1%,18%,17%,0%,inhibition at 10 µM [21]: 20%; inhibition at 10 µM [22]: 0%; inhibition at 10 µM [23]: 16%; inhibition at 10 µM [24]: 44%; inhibition at 10 µM [25]: 13%; inhibition at 10 µM [26]: 13%; inhibition at 10 µM [27]: 3%; inhibition at 10 µM [28]: 34%; inhibition at 10 µM [29]: 0%; inhibition at 10 µM [30]: 0%; inhibition at 10 µM [31]: 17%; inhibition at 10 µM [32]: 0%; inhibition at 10 µM [33]: 0%; inhibition at 10 µM [34]: 15%; inhibition at 10 µM [35]: 15%; inhibition at 10 µM [36]: 0%; inhibition at 10 µM [37]: 71%; inhibition at 10 µM [38]: 8%
O=C1C(Nc2ccc(I)cc2)=CC(c2ccc(F)cc2)N1c1ccc(I)cc1 (stereo not drawn) [3b],4%,9%,26%,0%,26%,35%,17%,27%,74%,12%,9%,8%,13%,35%,21%,51%,5%,0%,10%,36%,inhibition at 10 µM [21]: 38%; inhibition at 10 µM [22]: 9%; inhibition at 10 µM [23]: 7%; inhibition at 10 µM [24]: 92%; inhibition at 10 µM [25]: 8%; inhibition at 10 µM [26]: 35%; inhibition at 10 µM [27]: 13%; inhibition at 10 µM [28]: 32%; inhibition at 10 µM [29]: 0%; inhibition at 10 µM [30]: 5%; inhibition at 10 µM [31]: 27%; inhibition at 10 µM [32]: 6%; inhibition at 10 µM [33]: 0%; inhibition at 10 µM [34]: 8%; inhibition at 10 µM [35]: 100%; inhibition at 10 µM [36]: 16%; inhibition at 10 µM [37]: 90%; inhibition at 10 µM [38]: 8%
O=C1C(Nc2ccc(I)cc2)=CC(c2ccc(Cl)cc2)N1c1ccc(I)cc1 (stereo not drawn) [3c],0%,9%,17%,0%,24%,0%,7%,0%,15%,13%,13%,13%,4%,30%,25%,11%,18%,11%,0%,27%,inhibition at 10 µM [21]: 34%; inhibition at 10 µM [22]: 1%; inhibition at 10 µM [23]: 16%; inhibition at 10 µM [24]: 41%; inhibition at 10 µM [25]: 23%; inhibition at 10 µM [26]: 21%; inhibition at 10 µM [27]: 19%; inhibition at 10 µM [28]: 48%; inhibition at 10 µM [29]: 5%; inhibition at 10 µM [30]: 10%; inhibition at 10 µM [31]: 18%; inhibition at 10 µM [32]: 5%; inhibition at 10 µM [33]: 1%; inhibition at 10 µM [34]: 11%; inhibition at 10 µM [35]: 12%; inhibition at 10 µM [36]: 19%; inhibition at 10 µM [37]: 55%; inhibition at 10 µM [38]: 7%
O=C1C(Nc2ccc(I)cc2)=CC(c2ccc(O)cc2)N1c1ccc(I)cc1 (stereo not drawn) [3g],52%,59%,80%,24%,70%,75%,69%,42%,94%,25%,84%,45%,22%,100%,61%,69%,27%,44%,20%,66%,inhibition at 10 µM [21]: 85%; inhibition at 10 µM [22]: 44%; inhibition at 10 µM [23]: 27%; inhibition at 10 µM [24]: 100%; inhibition at 10 µM [25]: 42%; inhibition at 10 µM [27]: 41%; inhibition at 10 µM [28]: 80%; inhibition at 10 µM [29]: 33%; inhibition at 10 µM [30]: 78%; inhibition at 10 µM [32]: 44%; inhibition at 10 µM [33]: 73%; inhibition at 10 µM [34]: 31%; inhibition at 10 µM [35]: 77%; inhibition at 10 µM [36]: 96%; inhibition at 10 µM [37]: 100%; inhibition at 10 µM [38]: 17%
COc1ccccc1C1C=C(Nc2ccc(I)cc2)C(=O)N1c1ccc(I)cc1 (stereo not drawn) [3i],10%,46%,9%,0%,37%,0%,9%,0%,0%,19%,13%,30%,6%,32%,3%,31%,4%,2%,0%,20%,inhibition at 10 µM [21]: 60%; inhibition at 10 µM [22]: 3%; inhibition at 10 µM [23]: 57%; inhibition at 10 µM [24]: 23%; inhibition at 10 µM [25]: 13%; inhibition at 10 µM [27]: 28%; inhibition at 10 µM [28]: 39%; inhibition at 10 µM [29]: 21%; inhibition at 10 µM [30]: 9%; inhibition at 10 µM [32]: 25%; inhibition at 10 µM [33]: 15%; inhibition at 10 µM [34]: 17%; inhibition at 10 µM [35]: 37%; inhibition at 10 µM [36]: 5%; inhibition at 10 µM [37]: 84%; inhibition at 10 µM [38]: 0%
